{"source": "patent US9763942B2", "about": "“Serine/threonine kinase inhibitors” (Array BioPharma Inc., priority 2013, dated 2017)", "data": [{"molecular_target": "T1, human ERK-2 (Mitogen Activated Kinase 1) (Homo sapiens, UniProt P28482)", "T1 construct": "n-terminal 6-His fusion protein in E. coli and corresponding to aa 8-360; 6-His (N); made in house; host or cells: E. coli", "T1 sequence (P28482 8-360)": "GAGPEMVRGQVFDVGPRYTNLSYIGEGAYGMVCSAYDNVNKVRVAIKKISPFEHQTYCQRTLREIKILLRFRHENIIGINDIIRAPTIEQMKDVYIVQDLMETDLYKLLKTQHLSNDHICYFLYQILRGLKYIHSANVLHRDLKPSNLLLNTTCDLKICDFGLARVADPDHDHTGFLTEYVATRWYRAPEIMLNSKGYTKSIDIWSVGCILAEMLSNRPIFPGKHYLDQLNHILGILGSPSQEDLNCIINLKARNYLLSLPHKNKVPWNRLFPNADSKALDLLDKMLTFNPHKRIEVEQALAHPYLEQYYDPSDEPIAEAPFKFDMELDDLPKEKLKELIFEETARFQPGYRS", "assay": "ERK-2 Enzymatic Assay", "type": "biochemical", "conditions": "5 nM ERK-2 enzyme, 25 μM ATP (observed Km), Omnia peptide S/T17; single assay or mean of multiple assays; read-out: Biological Example 1 IC50", "from_the_text": "(§1) Table 1 contains representative data for Examples disclosed herein.", "units": {"IC50": "nM"}, "values": [{"compound": "COc1ncc(F)cc1N1CC[C@H](n2nnc3cc(-c4ccnc(Nc5ccnn5C)n4)ccc32)C1", "note": "[Example 81, (S)-4-(1-(1-(5-fluoro-2-methoxypyridin-3-yl)pyrrolidin-3-yl)-1H-benzo[d][1,2,3]triazol-5-yl)-N-(1-methyl-1H-pyrazol-5-yl)pyrimidin-2-amine]", "IC50": 511}]}, {"molecular_target": "T1, human ERK-2 (Mitogen Activated Kinase 1)", "assay": "ERK-2 Enzymatic Assay", "type": "biochemical", "conditions": "ERK-2 enzymatic assay; read-out: IC50", "from_the_text": "as §1", "units": {"IC50": "nM"}, "values": [{"compound": "CCC(C)Cn1nnc2cc(-c3ccnc(Nc4ccnn4C)n3)ccc21", "note": "(stereo not drawn) [Example 27]", "IC50": "< 100"}, {"compound": "Cn1nccc1Nc1nccc(-c2ccc3c(c2)nnn3[C@@H](CO)c2ccc(Cl)c(F)c2)n1", "note": "[Example 94, (R)-2-(4-chloro-3-fluorophenyl)-2-(5-(2-((1-methyl-1H-pyrazol-5-yl)amino)pyrimidin-4-yl)-1H-benzo[d][1,2,3]triazol-1-yl)ethanol]", "IC50": "< 100"}, {"compound": "COc1ncccc1Cn1nnc2cc(-c3ccnc(Nc4ccnn4C)c3)ccc21", "note": "[Example 54, 4-(1-((2-methoxypyridin-3-yl)methyl)-1H-benzo[d][1,2,3]triazol-5-yl)-N-(1-methyl-1H-pyrazol-5-yl)pyridin-2-amine]", "IC50": "< 100"}, {"compound": "CCC(CC)Cn1nnc2cc(-c3ccnc(Nc4ccnn4C)n3)ccc21", "note": "[Example 28, 4-(1-(2-ethylbutyl)-1H-benzo[d][1,2,3]triazol-5-yl)-N(1-methyl-1H-pyrazol-5-yl)pyrimidin-2-amine]", "IC50": "< 100"}, {"compound": "Clc1ccc(Cn2nnc3cc(-c4ccnc(NC5CCOCC5)n4)ccc32)cc1", "note": "[Example 112]", "IC50": "< 100"}, {"compound": "COc1ccc(Cn2nnc3cc(-c4ccnc(NC5COC5)n4)ccc32)cc1F", "note": "[Example 10, 4-(1-(3-fluoro-4-methoxybenzyl)-1H-benzo[d][1,2,3]triazol-5-yl)-N-(oxetan-3-yl)pyrimidin-2-amine]", "IC50": "< 100"}, {"compound": "COc1ccc(Cn2nnc3cc(-c4ccnc(NC(C)(C)CN5CCOCC5)n4)ccc32)cc1F", "note": "[Example 23, 4-(1-(3-fluoro-4-methoxybenzyl)-1H-benzo[d][1,2,3]triazol-5-yl)-N-(2-methyl-1-morpholinopropan-2-yl)pyrimidin-2-amine]", "IC50": "< 100"}, {"compound": "COC(C)(C)Cn1nnc2cc(-c3ccnc(Nc4ccnn4C)n3)ccc21", "note": "[Example 44, 4-(1-(2-methoxy-2-methylpropyl)-1H-benzo[d][1,2,3]triazol-5-yl)-N-(1-methyl-1H-pyrazol-5-yl)pyrimidin-2-amine]", "IC50": "< 100"}, {"compound": "Cn1nccc1Nc1nccc(-c2cnc3c(c2)nnn3Cc2ccc(Cl)cc2)n1", "note": "[Example 116, 4-(3-(4-chlorobenzyl)-3H-[1,2,3]triazolo[4,5-b]pyridin-6-yl)-N-(1-methyl-1H-pyrazol-5-yl)pyrimidin-2-amine]", "IC50": "< 100"}, {"compound": "Cn1nccc1Nc1nccc(-c2ccc3c(c2)nnn3CC2CN(CC(F)(F)F)C2)n1", "note": "[Example 64, N-(1-methyl-1H-pyrazol-5-yl)-4-(1-((1-(2,2,2-trifluoroethyl)azetidin-3-yl)methyl)-1H-benzo[d][1,2,3]triazol-5-yl)pyrimidin-2-amine]", "IC50": "< 100"}, {"compound": "CN(C)CC(c1ccc(Cl)c(F)c1)n1nnc2cc(-c3ccnc(Nc4ccnn4C)n3)ccc21", "note": "(stereo not drawn) [Example 91, 4-(1-(1-(4-chloro-3-fluorophenyl)-2-(dimethylamino)ethyl)-1H-benzo[d][1,2,3]triazol-5-yl)-N-(1-methyl-1H-pyrazol-5-yl)pyrimidin-2-amine]", "IC50": "< 100"}, {"compound": "CC(C)OCCCn1nnc2cc(-c3ccnc(Nc4ccnn4C)n3)ccc21", "note": "[Example 102, 4-(1-(3-isopropoxypropyl)-1H-benzo[d][1,2,3]triazol-5-yl)-N-(1-methyl-1H-pyrazol-5-yl)pyrimidin-2-amine]", "IC50": "< 100"}, {"compound": "Cn1nccc1Nc1nccc(-c2ccc3c(c2)nnn3Cc2cccc(C(F)(F)F)n2)n1", "note": "[Example 52, N-(1-methyl-1H-pyrazol-5-yl)-4-(1-((6-(trifluoromethyl)pyridin-2-yl)methyl)-1H-benzo[d][1,2,3]triazol-5-yl)pyrimidin-2-amine]", "IC50": "< 100"}, {"compound": "Cn1nccc1Cn1nnc2cc(-c3ccnc(Nc4ccnn4C)n3)ccc21", "note": "[Example 39, N-(1-methyl-1H-pyrazol-5-yl)-4-(1-((1-methyl-1H-pyrazol-5-yl)methyl)-1H-benzo[d][1,2,3]triazol-5-yl)pyrimidin-2-amine]", "IC50": "< 100"}, {"compound": "COc1ccc(Cn2nnc3cc(-c4ccnc(NC(C)C)n4)ccc32)cc1F", "note": "[Example 13, 4-(1-(3-fIuoro-4-methoxybenzyl)-1H-benzo[d][1,2,3]triazol-5-yl)-N-isopropylpyrimidin-2-amine]", "IC50": "< 100"}, {"compound": "Cc1ncccc1Cn1nnc2cc(-c3ccnc(Nc4ccnn4C)n3)ccc21", "note": "[Example 53, N-(1-methyl-1H-pyrazol-5-yl)-4-(1-((2-methylpyridin-3-yl)methyl)-1H-benzo[d][1,2,3]triazol-5-yl)pyrimidin-2-amine]", "IC50": "< 100"}, {"compound": "Cn1nccc1Nc1nccc(-c2ccc3c(c2)nnn3Cc2cccc(F)c2)n1", "note": "[Example 120, 4-(1-(3-fluorobenzyl)-1H-benzo[d][1,2,3]triazol-5-yl)-N-(1-methyl-1H-pyrazol-5-yl)pyrimidin-2-amine]", "IC50": "< 100"}, {"compound": "CCC(C)Cn1nnc2cc(-c3ccnc(Nc4cnn(C)c4)n3)ccc21", "note": "(stereo not drawn) [Example 96, N-(1-methyl-1H-pyrazol-4-yl)-4-(1-(2-methylbutyl)-1H-benzo[d][1,2,3]triazol-5-yl)pyrimidin-2-amine]", "IC50": "< 100"}, {"compound": "COc1cccnc1Cn1nnc2cc(-c3ccnc(Nc4ccnn4C)n3)ccc21", "note": "[Example 68, 4-(1-((3-methoxypyridin-2-yl)methyl)-1H-benzo[d][1,2,3]triazol-5-yl)-N-(1-methyl-1H-pyrazol-5-yl)pyrimidin-2-amine]", "IC50": "< 100"}, {"compound": "COc1ccc(Cn2nnc3cc(-c4ccnc(N[C@H]5CCOC[C@H]5F)n4)ccc32)cc1F", "note": "[Example 7, 4-(1-(3-fluoro-4-methoxybenzyl)-1H-benzo[d][1,2,3]triazol-5-yl)-N-((3S,4S)-3-fluorotetrahydro-2H-pyran-4-yl)pyrimidin-2-amine]", "IC50": "< 100"}, {"compound": "Cc1ccc(Cn2nnc3cc(-c4ccnc(Nc5ccnn5C)n4)ccc32)cn1", "note": "[Example 57, N-(1-methyl-1H-pyrazol-5-yl)-4-(1-((6-methylpyridin-3-yl)methyl)-1H-benzo[d][1,2,3]triazol-5-yl)pyrimidin-2-amine]", "IC50": "< 100"}, {"compound": "COc1ccc(Cn2nnc3cc(-c4ccnc(NCC5CC5)n4)ccc32)cc1F", "note": "[Example 14, N-(cyclopropylmethyl)-4-(1-(3-fluoro-4-methoxybenzyl)-1H-benzo[d][1,2,3]triazol-5-yl)pyrimidin-2-amine]", "IC50": "< 100"}, {"compound": "Cn1nccc1Nc1nccc(-c2ccc3c(c2)nnn3Cc2ccc(F)cc2F)n1", "note": "[Example 123]", "IC50": "< 100"}, {"compound": "Cn1nccc1Nc1nccc(-c2ccc3c(c2)nnn3C(CN2CCCC2)c2ccc(Cl)c(F)c2)n1", "note": "(stereo not drawn) [Example 92, 4-(1-(1-(4-chloro-3-fluorophenyl)-2-(pyrrolidin-1-yl)ethyl)-1H-benzo[d][1,2,3]triazol-5-yl)-N-(1-methyl-1H-pyrazol-5-yl)pyrimidin-2-amine]", "IC50": "< 100"}, {"compound": "Cn1nccc1Nc1nccc(-c2cnc3c(c2)nnn3Cc2ccc(F)c(Cl)c2)n1", "note": "[Example 121, 4-(3-(3-chloro-4-fluorobenzyl)-3H-[1,2,3]triazolo[4,5-b]pyridin-6-yl)-N-(1-methyl-1H-pyrazol-5-yl)pyrimidin-2-amine]", "IC50": "< 100"}, {"compound": "Cn1nccc1Nc1nccc(-c2ccc3c(c2)nnn3CCCF)n1", "note": "[Example 40, 4-(1-(3-fluoropropyl)-1H-benzo[d][1,2,3]triazol-5-yl)-N-(1-methyl-1H-pyrazol-5-yl)pyrimidin-2-amine]", "IC50": "< 100"}]}]}
